# Legend:
# Type in all cases: cell-based
# [1] = system: E. coli BL21; experiment: MIC against Gram-negative bacteria: E. coli BL21; details: 5×10^5 CFU/mL
# Procedure: (§1) 1. Gram-negative bacteria, such as E. coli BL21, Pseudomonas aeruginosa, Klebsiella pneumonia, Enterobacter cloacae, Aeromonas hydrophila, Citrobacter diversus, Moraxella catarrhalis, Proteus mirabilis, Proteus vulgaris, Serratia marcescens, etc were streaked on solid LB medium and cultured respectively. Then, typical clones were picked, inoculated into common liquid LB medium respectively, and cultured at 37° C. with shaking at 185 rpm until the McFarland specific turbidity was 0.5. The bacterial culture of each of Gram-negative bacteria was centrifuged at 4000×g for 3 min, the supernatant was discarded, and the thalli were resuspended with fresh LB medium.
# (§2) 2. The above-mentioned bacterial suspensions were diluted and inoculated into 96-well plates with the final concentration of the bacterial suspension being 5×10^5 CFU/mL per well.
# (§3) 3. Each of the purified human-originated EGF domain proteins (PRT1 to PRT1498 in Table 1) was added to each of the above wells and subjected to two-fold serial dilution in concentration. Three parallel wells were set up for each concentration in the gradient.
# (§4) 4. The above-mentioned 96-well plates were placed and cultured at 37° C. in shaking incubator shaking at 175 rpm. […] The minimal inhibitory concentration MIC is defined as the lowest concentration of the recombinant protein at which there is no growth of the bacteria.
# [2] = system: Pseudomonas aeruginosa; experiment: MIC against Gram-negative bacteria: Pseudomonas aeruginosa; details: 5×10^5 CFU/mL
# Procedure: as §1, §2, §3, §4
# [3] = system: Citrobacter diversus; experiment: MIC against Gram-negative bacteria: Citrobacter diversus; details: 5×10^5 CFU/mL
# Procedure: as §1, §2, §3, §4
# [4] = system: E. coli DH5α; experiment: Antibacterial activity: MIC and growth curve against E. coli DH5α in 96-well plate; details: minimal inhibitory concentration against E. coli DH5α; 96-well plate, 5×10^5 CFU/mL, 37° C., judged after 8 h
# Procedure: 1. E. coli DH5α was exemplified. E. coli DH5α was streaked and cultured on LB solid medium. Then, a typical clone was picked and inoculated into common LB liquid medium, cultured at 37° C. with shaking at 185 rpm until the logarithmic growth phase was reached (OD600 of about 0.5). The bacterial culture was centrifuged at 4000×g for 3 min, the supernatant was discarded, and the thalli were resuspended with fresh LB medium.
# 2. The above-mentioned bacterial suspension was diluted and inoculated into a 96-well plate with the total volume of 100 μL per well and a bacterial count of 5×10^5 CFU/mL.
# 3. The recombinant protein hF VII-EGF1 was added to the above-mentioned wells with the final protein concentration in the well of the highest protein concentration being 50 μg/mL. Basing on this final concentration, a two-fold serial dilution was performed till a protein concentration gradient consisting of 50, 25, and 12.5 μg/mL was set up. Three parallel wells were set up for each concentration in the gradient.
# as §4, with “plate was” for “plates were”, “rpm. Samples were taken every 30 min, the absorbance values were determined at 600 nm wavelength under a ultra violet spectrophotometer, and an inhibition curve was plotted.” for “rpm.”
# According to the experimental procedures in Example 14, the minimal inhibitory concentrations (MIC, μg/mL) of the other human-originated EGF domain proteins (PRT2 to PRT1498 in Table 1) for E. coli DH5α were determined.
# [5] = system: Moraxella catarrhalis; experiment: MIC against Gram-negative bacteria: Moraxella catarrhalis; details: 5×10^5 CFU/mL
# Procedure: as §1, §2, §3, §4
# [6] = system: Proteus vulgaris; experiment: MIC against Gram-negative bacteria: Proteus vulgaris; details: 5×10^5 CFU/mL
# Procedure: as §1, §2, §3, §4
# [7] = system: Proteus mirabilis; experiment: MIC against Gram-negative bacteria: Proteus mirabilis; details: 5×10^5 CFU/mL
# Procedure: as §1, §2, §3, §4
# [8] = system: Serratia marcescens; experiment: MIC against Gram-negative bacteria: Serratia marcescens; details: 5×10^5 CFU/mL
# Procedure: as §1, §2, §3, §4
# [9] = system: Enterobacter cloacae; experiment: MIC against Gram-negative bacteria: Enterobacter cloacae; details: 5×10^5 CFU/mL
# Procedure: as §1, §2, §3, §4
# [10] = system: Aeromonas hydrophila; experiment: MIC against Gram-negative bacteria: Aeromonas hydrophila; details: 5×10^5 CFU/mL
# Procedure: as §1, §2, §3, §4
# [11] = system: Klebsiella pneumonia; experiment: MIC against Gram-negative bacteria: Klebsiella pneumonia; details: 5×10^5 CFU/mL
# Procedure: as §1, §2, §3, §4
# [12] = 10 h cultivation at 37° C., two-fold serial dilution
# [13] = E. coli BL21, 96-well plate, 37° C., 10 h
# [14] = Pseudomonas aeruginosa, 96-well plate, 37° C., 10 h
# [15] = Citrobacter diversus, 96-well plate, 37° C., 10 h
# [16] = Moraxella catarrhalis, 96-well plate, 37° C., 10 h
# [17] = Proteus vulgaris, 96-well plate, 37° C., 10 h
# [18] = Proteus mirabilis, 96-well plate, 37° C., 10 h
# [19] = Serratia marcescens, 96-well plate, 37° C., 10 h
# [20] = Enterobacter cloacae, 96-well plate, 37° C., 10 h
# [21] = Aeromonas hydrophila, 96-well plate, 37° C., 10 h
# [22] = Klebsiella pneumonia, 96-well plate, 37° C., 10 h
substance,measurement,setting,value
PRT1181 (KEAVCKQGCNLLHGGCTVPGECRCSYGWQGRFCD; listed as Homo sapiens),MIC E. coli BL21,[1]; [12],50 µg/mL
same,MIC P. aeruginosa,[2]; [12],12.5 µg/mL
same,MIC C. diversus,[3]; [12],12.5 µg/mL
same,MIC,[4],12.5 µg/mL
same,MIC M. catarrhalis,[5]; [12],50 µg/mL
same,MIC P. vulgaris,[6]; [12],50 µg/mL
same,MIC P. mirabilis,[7]; [12],100 µg/mL
same,MIC S. marcescens,[8]; [12],25 µg/mL
same,MIC E. cloacae,[9]; [12],25 µg/mL
same,MIC A. hydrophila,[10]; [12],25 µg/mL
same,MIC K. pneumonia,[11]; [12],50 µg/mL
PRT1256 (DVDECQDNNGGCQQICVNAMGSYECQCHSGFFLSDNQ; listed as Homo sapiens),MIC against E. coli BL21,[1]; [13],12.5 µg/mL
same,MIC against P. aeruginosa,[2]; [14],25 µg/mL
same,MIC against C. diversus,[3]; [15],12.5 µg/mL
same,MIC,[4],25 µg/mL
same,MIC against M. catarrhalis,[5]; [16],50 µg/mL
same,MIC against P. vulgaris,[6]; [17],50 µg/mL
same,MIC against P. mirabilis,[7]; [18],12.5 µg/mL
same,MIC against S. marcescens,[8]; [19],25 µg/mL
same,MIC against E. cloacae,[9]; [20],25 µg/mL
same,MIC against A. hydrophila,[10]; [21],50 µg/mL
same,MIC against K. pneumonia,[11]; [22],12.5 µg/mL
PRT70 (VDDPCTSSPCPPNSRCHDAWEDYSCVCDKGYLGINC; listed as Homo sapiens),MIC (μg/mL) E. coli BL21,[1]; [13],12.5 µg/mL
same,MIC (μg/mL) P. aeruginosa,[2]; [14],12.5 µg/mL
same,MIC (μg/mL) C. diversus,[3]; [15],12.5 µg/mL
same,MIC,[4],12.5 µg/mL
same,MIC (μg/mL) M. catarrhalis,[5]; [16],12.5 µg/mL
same,MIC (μg/mL) P. vulgaris,[6]; [17],12.5 µg/mL
same,MIC (μg/mL) P. mirabilis,[7]; [18],50 µg/mL
same,MIC (μg/mL) S. marcescens,[8]; [19],25 µg/mL
same,MIC (μg/mL) E. cloacae,[9]; [20],12.5 µg/mL
same,MIC (μg/mL) A. hydrophila,[10]; [21],25 µg/mL
same,MIC (μg/mL) K. pneumonia,[11]; [22],25 µg/mL
PRT871 (CYCNPLGSIHDRCNGSGFCECKTGTTGPKCDECLPGNSWHYGCQPNVCDN; listed as Homo sapiens),MIC (μg/mL) E. coli BL21,"[1]; E. coli BL21, 10 h cultivation at 37° C.",25 µg/mL
same,MIC (μg/mL) P. aeruginosa,"[2]; P. aeruginosa, 10 h cultivation at 37° C.",50 µg/mL
same,MIC (μg/mL) C. diversus,"[3]; C. diversus, 10 h cultivation at 37° C.",12.5 µg/mL
same,MIC,[4],12.5 µg/mL
same,MIC (μg/mL) M. catarrhalis,"[5]; M. catarrhalis, 10 h cultivation at 37° C.",25 µg/mL
same,MIC (μg/mL) P. vulgaris,"[6]; P. vulgaris, 10 h cultivation at 37° C.",50 µg/mL
same,MIC (μg/mL) P. mirabilis,"[7]; P. mirabilis, 10 h cultivation at 37° C.",12.5 µg/mL
same,MIC (μg/mL) S. marcescens,"[8]; S. marcescens, 10 h cultivation at 37° C.",12.5 µg/mL
same,MIC (μg/mL) E. cloacae,"[9]; E. cloacae, 10 h cultivation at 37° C.",12.5 µg/mL
same,MIC (μg/mL) A. hydrophila,"[10]; A. hydrophila, 10 h cultivation at 37° C.",12.5 µg/mL
same,MIC (μg/mL) K. pneumonia,"[11]; K. pneumonia, 10 h cultivation at 37° C.",12.5 µg/mL
PRT523 (CSCGRRLCEEMTGQCRCPPRTVRPQCEVCETHSFSFHPMAGCEG; listed as Homo sapiens),MIC against E. coli BL21,"[1]; 96-well plate, 37° C., 10 h",25 µg/mL
same,MIC against P. aeruginosa,"[2]; 96-well plate, 37° C., 10 h",50 µg/mL
same,MIC against C. diversus,"[3]; 96-well plate, 37° C., 10 h",50 µg/mL
same,MIC,[4],12.5 µg/mL
same,MIC against M. catarrhalis,"[5]; 96-well plate, 37° C., 10 h",12.5 µg/mL
same,MIC against P. vulgaris,"[6]; 96-well plate, 37° C., 10 h",12.5 µg/mL
same,MIC against P. mirabilis,"[7]; 96-well plate, 37° C., 10 h",50 µg/mL
same,MIC against S. marcescens,"[8]; 96-well plate, 37° C., 10 h",12.5 µg/mL
same,MIC against E. cloacae,"[9]; 96-well plate, 37° C., 10 h",12.5 µg/mL
same,MIC against A. hydrophila,"[10]; 96-well plate, 37° C., 10 h",25 µg/mL
same,MIC against K. pneumonia,"[11]; 96-well plate, 37° C., 10 h",25 µg/mL
